The values below come from patent US5171837A, “Peptide capable of binding interleukin 6 and an adsorbent comprising the peptide immobilized on a carrier” (Kuraray Co., Ltd., priority 1989, dated 1992).

Non-standard residues stand in square brackets, D forms with d. Residues, ends and D or L forms follow the SMILES beside them. No end group written: not given here. *: point of attachment. X1 = NCCCCCCCCCCCCCCCCCC(=O)*; 12Ado = NCCCCCCCCCCCC(=O)O

The target in this assay is T1, IL-6 (Homo sapiens, UniProt P05231).
T1 construct: purchased Genzyme Corp
The assay is described as follows: Activity for inhibition of binding of IL-6 to receptor by peptide (IL-6 receptor expression cells, FITC labeled anti-IL-6 antibody). The following applies: 5 μg of the peptide, 50 ng of IL-6, 10^5 IL-6 receptor expression cells, 4° C for one hour. The protocol: A human lymphocyte fraction was obtained from human peripheral blood with Ficoll-Paque (manufactured by Pharmacia-LKB). The fraction was reacted with a cultured supernatant of Epstein-Barr Virus producing cell strain B958 to transform the human lymphocytes to obtain IL-6 receptor expression cells.
1 mg of anti-human IL-6 antibody [Rabbit Anti-human Interleukin-6, manufactured by Genzyme Corp.] was dissolved in a 0.05M carbonate buffer solution (pH: 9.5) and to the resulting solution was added 10 μg of FITC [Fluorescein isothiocyanate, manufactured by Sigma Corp.]. The mixture was stirred at 4° C. overnight. The resulting solution was passed through PD-10 column (manufactured by Pharmacia-LKB) to obtain FITC labeled anti-IL-6 antibody as a firstly eluted fraction.
10^5 IL-6 receptor expression cells were suspended in 0.5 % BSA (bovine serum albumin, manufactured by Sigma Corp.)-PBS (a phosphate buffer solution containing 0.15 M sodium chloride, pH 7.4) and to the resulting suspension were added 50 ng of IL-6 (Human recombinant interleukin-6, manufactured by Genzyme Corp.) and 5 μg of the peptide obtained in any one of Examples 1 to 96. The suspension was allowed to stand at 4° C for one hour. Then, after washing the cells centrifugally with 0.5% BSA-PBS three times (1200 rpm, 5 min.), 1 μg of FITC labeled anti-IL-6 antibody was added and the mixture was allowed to stand at 4° C. for 30 minutes. After washing with 0.5% BSA-PBS three times, the intensity of fluorescence of the cells was determined. The binding inhibition activity of the peptide of each Example was evaluated, by taking the value obtained without addition of the peptide as a control and taking the value- obtained without addition of IL-6 as a blank, according to the following formula: [formula]

T1 sequence (P05231 30-212): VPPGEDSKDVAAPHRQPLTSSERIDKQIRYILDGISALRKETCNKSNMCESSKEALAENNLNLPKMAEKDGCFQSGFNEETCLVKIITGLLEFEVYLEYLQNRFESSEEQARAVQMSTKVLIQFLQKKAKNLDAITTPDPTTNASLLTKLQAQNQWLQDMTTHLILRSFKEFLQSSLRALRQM

For the compound `CC(C)C[C@H](NC(=O)[C@H](CCC(=O)O)NC(=O)[C@H](Cc1ccccc1)NC(=O)[C@H](CCCNC(=N)N)NC(=O)[C@H](CC(C)C)NC(=O)[C@H](CCCNC(=N)N)NC(=O)[C@H](Cc1ccc(O)cc1)NC(=O)[C@H](Cc1ccccc1)NC(=O)[C@H](CO)NC(=O)[C@H](CO)NC(=O)[C@H](CC(N)=O)NC(=O)[C@H](Cc1c[nH]c2ccccc12)NC(=O)[C@H](CO)NC(=O)[C@H](Cc1c[nH]cn1)NC(=O)[C@@H]1CCCN1C(=O)[C@H](CC(=O)O)NC(=O)CCCCCCCCCCCN)C(=O)N[C@@H](CCCNC(=N)N)C(=O)N[C@@H](Cc1ccc(O)cc1)C(=O)N[C@@H](CCCNC(=N)N)C(=O)N[C@@H](C)C(=O)N[C@@H](CCC(=O)O)C(=O)N[C@@H](CCCNC(=N)N)C(=O)N[C@@H](CO)C(=O)N[C@@H](CCCCN)C(=O)N[C@@H](CCC(=O)O)C(=O)N[C@@H](CCC(=O)O)C(=O)N[C@@H](CCC(=O)O)C(=O)N[C@@H](CCC(=O)O)C(=O)N[C@@H](CCC(=O)O)C(=O)O` [Example 75] (H-[12Ado]DPHSWNSSFYRLRFELRYRAERSKEEEEE-OH), the “Binding inhibition activity (%)” value turned out to be 63%.

Consider RKFQNSPAEDFQEPCQYSQESK [Example 17], for which the “Binding inhibition activity (%)” value amounted to 60%.

For `C[C@H](NC(=O)[C@@H]1CCCN1C(=O)[C@H](CO)NC(=O)[C@H](CC(N)=O)NC(=O)[C@H](CCC(N)=O)NC(=O)[C@H](Cc1ccccc1)NC(=O)[C@H](CCCCN)NC(=O)[C@H](CCCNC(=N)N)NC(=O)CCCCCCCCCCCN)C(=O)N[C@@H](CCC(=O)O)C(=O)N[C@@H](CC(=O)O)C(=O)N[C@@H](Cc1ccccc1)C(=O)N[C@@H](CCC(N)=O)C(=O)N[C@@H](CCC(=O)O)C(=O)N1CCC[C@H]1C(=O)N[C@@H](CS)C(=O)N[C@@H](CCC(N)=O)C(=O)N[C@@H](Cc1ccc(O)cc1)C(=O)N[C@@H](CO)C(=O)N[C@@H](CCC(N)=O)C(=O)N[C@@H](CCC(=O)O)C(=O)N[C@@H](CO)C(=O)N[C@@H](CCC(=O)O)C(=O)N[C@@H](CCC(=O)O)C(=O)N[C@@H](CCC(=O)O)C(=O)N[C@@H](CCC(=O)O)C(=O)N[C@@H](CCC(=O)O)C(=O)O` [Example 19] (H-[12Ado]RKFQNSPAEDFQEPCQYSQESEEEEE-OH), the “Binding inhibition activity (%)” value is listed as 62%.

As for `C[C@H](NC(=O)[C@@H]1CCCN1C(=O)[C@H](CO)NC(=O)[C@H](CC(N)=O)NC(=O)[C@H](CCC(N)=O)NC(=O)[C@H](Cc1ccccc1)NC(=O)[C@H](CCCCN)NC(=O)[C@H](CCCNC(=N)N)NC(=O)CCCCCCCCCCCCCCCCCN)C(=O)N[C@@H](CCC(=O)O)C(=O)N[C@@H](CC(=O)O)C(=O)N[C@@H](Cc1ccccc1)C(=O)N[C@@H](CCC(N)=O)C(=O)N[C@@H](CCC(=O)O)C(=O)N1CCC[C@H]1C(=O)N[C@@H](CS)C(=O)N[C@@H](CCC(N)=O)C(=O)N[C@@H](Cc1ccc(O)cc1)C(=O)N[C@@H](CO)C(=O)N[C@@H](CCC(N)=O)C(=O)N[C@@H](CCC(=O)O)C(=O)N[C@@H](CO)C(=O)NCC(=O)O` [Example 20] (X1-RKFQNSPAEDFQEPCQYSQESG-OH), the “Binding inhibition activity (%)” value was 65%.

With “DDDDDGTVHLLVDVPPEEPQLSCFRKAAG-NH2 [Example 16]”, the “Binding inhibition activity (%)” value was 31%.

Take KNPRWLSVTWQDPHSD-NH2 [Example 54]: the “Binding inhibition activity (%)” value was 28%.

As for GTVHLLVDVPPEEPQLSCFRK [Example 13], the “Binding inhibition activity (%)” value was 25%.

On to “KGTVHLLVDVPPEEPQLSCFRKD-NH2 [Example 14]”, for which the “Binding inhibition activity (%)” value turned out to be 32%.

For KKGTVHLLVDVPPEEPQLSCFRK [Example 10], the “Binding inhibition activity (%)” value is on record as 28%.

Turning to “DDDDDDPHSWNSSFYRLRFELRYRAERSKAAG-NH2 [Example 80]”, the “Binding inhibition activity (%)” value is 59%.

In the case of `CC(C)C[C@H](NC(=O)[C@H](CCC(=O)O)NC(=O)[C@H](Cc1ccccc1)NC(=O)[C@H](CCCNC(=N)N)NC(=O)[C@H](CC(C)C)NC(=O)[C@H](CCCNC(=N)N)NC(=O)[C@H](Cc1ccc(O)cc1)NC(=O)[C@H](Cc1ccccc1)NC(=O)[C@H](CO)NC(=O)[C@H](CO)NC(=O)[C@H](CC(N)=O)NC(=O)[C@H](Cc1c[nH]c2ccccc12)NC(=O)[C@H](CO)NC(=O)[C@H](Cc1c[nH]cn1)NC(=O)[C@@H]1CCCN1C(=O)[C@H](CC(=O)O)NC(=O)[C@H](CCC(N)=O)NC(=O)[C@H](Cc1c[nH]c2ccccc12)NC(=O)CCCCCCCCCCCCCCCCCN)C(=O)N[C@@H](CCCNC(=N)N)C(=O)N[C@@H](Cc1ccc(O)cc1)C(=O)N[C@@H](CCCNC(=N)N)C(=O)N[C@@H](C)C(=O)N[C@@H](CCC(=O)O)C(=O)N[C@@H](CCCNC(=N)N)C(=O)N[C@@H](CO)C(=O)N[C@@H](CCCCN)C(=O)NCC(=O)O` [Example 92] (X1-WQDPHSWNSSFYRLRFELRYRAERSKG-OH), the “Binding inhibition activity (%)” value is 62%.

On to KTSLPGDSVTLTCPGVEPEDD-NH2 [Example 6], for which the “Binding inhibition activity (%)” value worked out at 36%.

In the case of DPHSWNSSFYRLRFELRYRAERSKK [Example 73], the “Binding inhibition activity (%)” value amounted to 71%.

As for “EEEWQDPHSWNSSFYRLRFELRYRAERSKKG-NH2 [Example 95]”, the “Binding inhibition activity (%)” value was 65%.

Turning to PHSWNSSFYRLRFELRYRAERSK [Example 69], the “Binding inhibition activity (%)” value is on record as 54%.

For “EEEWNSSFYRLRFELRYRAERSKKG-NH2 [Example 39]”, the “Binding inhibition activity (%)” value came out at 58%.

Consider “EEEPHSWNSSFYRLRFELRYRAERSKKG-NH2 [Example 71]”, for which the “Binding inhibition activity (%)” value was determined as 60%.

On to WQDPHSWNSSFYRLRFELRYRAERSK [Example 93], for which the “Binding inhibition activity (%)” value is on record as 59%.

Turning to KKPHSWNSSFYRLRFELRYRAERSK [Example 66], the “Binding inhibition activity (%)” value amounted to 65%.

KWNSSFYRLRFELRYRAERSKD-NH2 [Example 38]: the “Binding inhibition activity (%)” value is 56%.

Regarding KKDPHSWNSSFYRLRFELRYRAERSK [Example 74], the “Binding inhibition activity (%)” value turned out to be 70%.

For the compound KKQALTTNKDDDNILFRDSA [Example 26], the “Binding inhibition activity (%)” value is listed as 42%.

As to “EEEQDPHSWNSSFYRLRFELRYRAERSKKG-NH2 [Example 87]”, the “Binding inhibition activity (%)” value worked out at 72%.

Turning to “WQDPHSWNSSFYRLRFELRYRAERSKK [Example 89]”, the “Binding inhibition activity (%)” value is 68%.

With “KWQDPHSWNSSFYRLRFELRYRAERSKD-NH2 [Example 94]”, the “Binding inhibition activity (%)” value is 63%.

Take “KPHSWNSSFYRLRFELRYRAERSKD-NH2 [Example 70]”: the “Binding inhibition activity (%)” value is 59%.

On to “KRKFQNSPAEDFQEPCQYSQESD-NH2 [Example 22]”, for which the “Binding inhibition activity (%)” value is 58%.

Take “KHSWNSSFYRLRFELRYRAERSKD-NH2 [Example 62]”: the “Binding inhibition activity (%)” value was determined as 50%.

For DPHSWNSSFYRLRFELRYRAERSK [Example 77], the “Binding inhibition activity (%)” value worked out at 58%.

In the case of `CC(C)C[C@H](NC(=O)[C@H](CCC(=O)O)NC(=O)[C@H](Cc1ccccc1)NC(=O)[C@H](CCCNC(=N)N)NC(=O)[C@H](CC(C)C)NC(=O)[C@H](CCCNC(=N)N)NC(=O)[C@H](Cc1ccc(O)cc1)NC(=O)[C@H](Cc1ccccc1)NC(=O)[C@H](CO)NC(=O)[C@H](CO)NC(=O)[C@H](CC(N)=O)NC(=O)[C@H](Cc1c[nH]c2ccccc12)NC(=O)CCCCCCCCCCCCCCCCCN)C(=O)N[C@@H](CCCNC(=N)N)C(=O)N[C@@H](Cc1ccc(O)cc1)C(=O)N[C@@H](CCCNC(=N)N)C(=O)N[C@@H](C)C(=O)N[C@@H](CCC(=O)O)C(=O)N[C@@H](CCCNC(=N)N)C(=O)N[C@@H](CO)C(=O)N[C@@H](CCCCN)C(=O)NCC(=O)O` [Example 36] (X1-WNSSFYRLRFELRYRAERSKG-OH), the “Binding inhibition activity (%)” value was found to be 62%.

In the case of “EEEGTVHLLVDVPPEEPQLSCFRKKG-NH2 [Example 15]”, the “Binding inhibition activity (%)” value is recorded as 30%.

On to “H-Thr-Ser-Leu-Pro-Gly-Ser-Val-Thr-Leu-Thr-Cys-Pro-Gly-Val-Glu-Pro-Glu-Asp- Lys-OH (H-TSLPGSVTLTCPGVEPEDK-OH) [Example 1]”, for which the “Binding inhibition activity (%)” value is 38%.

For the compound “DDDDDWNSSFYRLRFELRYRAERSKAAG-NH2 [Example 40]”, the “Binding inhibition activity (%)” value amounted to 37%.

QDPHSWNSSFYRLRFELRYRAERSKK [Example 81]: the “Binding inhibition activity (%)” value is 76%.

Regarding WNSSFYRLRFELRYRAERSKK [Example 33], the “Binding inhibition activity (%)” value is given as 58%.
